Measurements: patent US20170027936A1, “ABL1 INHIBITOR FOR TREATING AND PREVENTING OCULAR NEOVASCULARISATION” (UCL BUSINESS PLC, priority 2014, published 2017)
“Also recorded” adds a separate entry of the source.

Experiments:
[1] = tested on: BCR-ABL-expressing Ba/F3 and bone marrow cells; details: murine xenograft models of leukaemia; cited from earlier work
[2] = tested on: PXN Y118 phosphorylation; assay: PXN Y118 phosphorylation in HDMEC plated on FN (immunofluorescence, immunoblotting); format: cell-based, human; details: 10 μM Imatinib 30 min before and during plating on FN, versus vehicle
Protocol: (§1) (A-C) ABL1 kinase activity is essential for PXN phosphorylation. […] In (A), pPXN Y118 (green) is shown together with phalloidin (red) and DAPI (blue) on the left hand side and as single channel in grey scale on the right hand side; scale bar 20 μm. pPXN pixel intensity was quantified in (B) and expressed as fold change in knockdown cells at the indicated time points relative to control cells at 0 min; mean±SEM of four independent experiments.
(§2) Human microvascular dermal EC (HDMEC; Promocell, UK) and human umbilical vein EC (HUVEC; Promocell) were cultured in standard conditions and transfected with Lipofectamine RNAIMAX (Life Technologies). Primary mouse lung EC (MLEC) were isolated from mice between one and two months of age by magnetic-activated cell sorting (MACS) with PECAM antibodies (BD Biosciences, UK). […] In some experiments, cells were stimulated with VEGF165 50 ng/ml for the indicated times.
(§3) Immunofluorescence staining of HDMEC and p6 mouse retinas was analysed with a L5M710 laser scanning confocal microscope.

[3] = tested on: HDMEC; assay: Actin remodelling and cell spreading of HDMEC plated on FN (phalloidin staining); format: cell-based, human; details: Imatinib-treated
Protocol: as §1, §2, §3

[4] = tested on: retinal vasculature; assay: Physiological retinal angiogenesis in the perinatal mouse (IB4/FN labelled P6 retinal flatmounts); format: in vivo
Description: FIG. 7 ABL1 is essential for vessel spouting and branching in the retina. […] Vascular extension from the retinal centre to the vascular front is indicated with red arrows. […] Asterisks indicate statistical significance: **P<0.01.
(C,D) Reduced astrocyte, but not vascular FN deposition in Imatinib-treated retinas. […] Note reduced FN staining of astrocyte processes ahead of the vascular front (A), whilst the vasculature was prominently stained for FN.
Examples of abnormally long and wide sprouts without lateral protrusions or connections are indicated with arrows. (G) Quantification of filopodial bursts per vascular front length as an indicator of tip cell number, and quantification of branchpoints behind the vascular front; vehicle, n=7; P4/5, n=3; P2-5, n=4; ***P<0.001 versus control; ^♯P<0.05 for P4/5 versus P2-5treatment.
All animal procedures were performed in accordance with institutional and UK Home Office guidelines. We used C57/616 wild type mice (Charles River Laboratories), littermate wild type and heterozygous Nrp/-null mutants and mice carrying two floxed conditional null Nrp1 alleles (Nrp1^fl/fl) combined with Pdgfb-iCre-ERT2-Egfp with codon-improved Cre on a C57/616 background. For tamoxifen-induction of CRE-mediated recombination, 0.2 mg of tamoxifen (SIGMA) dissolved in peanut oil to 2 mg/ml was administered via intraperitoneal injection into pups at the indicated times. […] OIR was induced as previously described. Briefly, nursing dams and their pups were maintained at 75±3% O2 in an oxygen supply chamber from P7 to P12; dams were rested in room air for 1 h each day. Dams and pups were returned to room air on P12 and the pups culled on P17 to isolate retinas for immunolabelling; the size of the avascular and neovascular areas was determined with Photoshop CS4 (Adobe Inc.) in images acquired with a SZX16 stereofluorescent microscope (Olympus) equipped with a digital camera (Hamamatsu Photonics Ltd).
as §3

[5] = tested on: pathological angiogenesis in the retina; details: OIR, P17 retina, daily Imatinib after return to normoxia (P13-16), versus vehicle
[6] = P6 retina, Imatinib P2 to P5, versus vehicle
[7] = P6 retina, Imatinib on P4/5 or P2-5, versus vehicle
[8] = P6 retina, Imatinib-treated mice

| SMILES | suppression of proliferation of BCR-ABL-expressing cells in vivo [1] | PXN Y118 phosphorylation (pixel intensities in immunostains and immunoblots) [2] | cell spreading [3] | stress fibres / cortical actin (phalloidin) [3] | FN pixel intensity in IB4-positive (vascular) areas [4, 6] | astrocyte FN deposition ahead of the vascular front [4, 6] | vascular extension across the retina [4, 6] | branchpoints behind the vascular front [4, 7] | tip cells (filopodial bursts at the vascular front) [4, 7] | filopodia morphology at the vascular front [4, 8] | interaction of tip cells with microglia [4, 8] | sprout morphology at the vascular front [4, 8] | vascular network density ([4]; P6 retinal flatmounts, Imatinib versus vehicle) | formation of neovascular tufts (NV area) [5] |
| --- | --- | --- | --- | --- | --- | --- | --- | --- | --- | --- | --- | --- | --- | --- |
| O=C(NCCO)c1cccc(-c2cc(Nc3ccc(OC(F)(F)F)cc3)ncn2)c1 [GNF-5, N-(2-Hydroxyethyl)-3-(6-(4(trifluoromethoxy)phenylamino)pyrimidin-4-yl)benzamide] | exhibits in vivo efficacy in suppressing the proliferation |  |  |  |  |  |  |  |  |  |  |  |  |  |
| Cc1ccc(NC(=O)c2ccc(CN3CCN(C)CC3)cc2)cc1Nc1nccc(-c2cccnc2)n1 [Imatinib] |  | significantly reduced | reduced | few stress fibres, but abundant cortical actin | no difference; also recorded: not significantly (ns) changed | significantly reduced | small, but significant reduction; also recorded: Reduced | significant and lmatinib dose-dependent reduction; also recorded: Dose-dependent decrease | significantly fewer | thin, wavy and misoriented | not prevented | longer and wider, with fewer lateral protrusions connecting to neighbouring sprouts | reduced | effectively inhibited; also recorded: reduced |
